These results are taken from patent EP1285971B1, “Methods for the phenotypic and genotypic assessment of the drug sensitivity of HIV integrase variants” (Tibotec Pharmaceuticals Ltd., priority 2001, dated 2003).

The subject of one assay is patient_146514. Description: microbe, parasite or virus in culture. It is filed as cell-based, HIV. The note with it: AVE 2, patient_146514, primer set 3. As to the method:
(§1) The integrase encoding sequence was amplified from either wildtype HIV-1 (IIIB) or NL4.3 virus, or HXB2D site-directed mutant viruses containing mutations in integrase (such as T66I, S153Y, M154I, or combinations thereof) (Hazuda et al., Science 2000, 287, 646-650), or patient samples. Starting from RNA, extracted from virus supernatant or plasma using the QIAamp® viral RNA extraction kit (Qiagen), cDNA was synthesized by reverse transcription (Expand TM reverse transcriptase, 30 min at 42°C) with the primer 3'EGINT10 (SEQ ID NO 11), followed by a nested PCR. The outer PCR was performed with the primers 5'EGINT1 (SEQ ID NO 1) and 3'EGINT10 (SEQ ID NO 11) (ΔR-IN-vif construct) or 5'EGINT3 (SEQ ID NO 4) and 3'EGINT10 (SEQ ID NO 11) (ΔIN construct) (Expand™ High Fidelity PCR system), and 5 µl of the outer product was used for an inner PCR with primers 5'EGINT2 (SEQ ID NO 3) and 3'EGINT11 (SEQ ID NO 12) (ΔR-IN-vif construct) or 5'EGINT4 (SEQ ID NO 5) and 3'EGINT6 (SEQ ID NO 7) (ΔIN construct). In a second protocol the outer primers were identical as described above, the inner primers are 5'EGINT5 (SEQ ID NO 6) and 3'EGINT6 (SEQ ID NO 7). The amplicons can be used for genotyping and phenotyping. Cycling conditions for both PCRs are denaturation for 3 min at 95°C, followed by 30 cycles of 1 min 90°C, 30 sec 55°C, and 2 min 72°C. A final extension was performed at 72°C for 10 min. For recombination, PCR products are purified using the QiaQuick® 96 PCR BioRobot kit (Qiagen), according to the manufacturer's protocol. If the protocol starts from DNA containing the HIV material such as proviral DNA, the reverse transcriptase step is not needed. The nested approach is also not needed when starting from proviral DNA. The obtained amplicons were sequenced using the primers: In_seq1F (SEQ ID NO 17), In_seq2F (SEQ ID NO 18), In_seq3F (SEQ ID NO 19), IN_seq1R (SEQ ID NO 20), IN_seq2R (SEQ ID NO 21), and IN_seq3R (SEQ ID NO 22).
(§2) A ΔR-IN-vif or ΔIN deletion construct was generated by site-directed mutagenesis on the template pSV40HXB2D with the primers MUT-IN1 (SEQ ID NO 13) and MUT-IN2 (ΔR-IN-vif construct) (SEQ ID NO 14) or MUT-IN3 (SEQ ID NO 15) and MUT-IN4 (SEQ ID NO 16) (ΔIN construct) (protocol Site-directed mutagenesis kit, Stratagene). After DpnI digestion for removal of the methylated template DNA, the construct was digested with SmaI and ligated to circulize the plasmid. The plasmid was transformed into competent cells such as Top10 cells, and colonies were screened for the presence of the deletion construct. The IN-deletion construct was checked by sequence analysis with primers 5'EGINT1 (SEQ ID NO 1) or […] and 3'EGINT10 (SEQ ID NO 11) or 3'EGINT11 (SEQ ID NO 12). For use in recombination experiments, large-scale plasmid DNA preparations were linearized by SmaI digestion and recombined with PCR amplified integrase genes from wild type, mutant, or patient viruses. The plasmid containing the integrase deletion (ΔIN) has been deposited pSV40HXB2D-ΔIN. The sequence of said plasmid is 14377 nucleotides long. The ΔR-IN-vif deletion construct is 13975 nucleotides long. The pSV40HXB2D-ΔIN was deposited at the Belgian Coordinated Collections of Micro-Organisms located at the Universiteit Gent - Laboratorium voor Moleculaire Biologie on August 5, 2002 and the accession number is LMBP 4574.
(§3) Recombinant virus was produced by co-transfection by electroporation of the SmaI-linearized IN-deletion construct and the integrase amplicon into MT4 cells or MT4 cells equipped with an LTR driven reporter gene construct. Production of recombinant virus was evaluated by scoring the cytopathogenic effect (CPE) that is induced by HIV-infection of MT4 cells or by the LTR-driven reporter signal induced by HIV infection in MT4 reporter cells.

A further assay deals with NL 4-3. As to the kind of experiment: microbe, parasite or virus in culture. It is filed as cell-based, HIV-1. The note with it: for fold change: fold change in EC50; for EC50: read-out: EC 50. As to the method: as §1, §2, §3
The next assay concerns WT III B. Description: microbe, parasite or virus in culture. Format: cell-based, HIV-1. The note with it: AVE 5, WT III B, primer set 4. How it is done:
as §1, §2, §3

The next assay relates to pHXB2D control. Description: Antiviral experiment with control clone, transfected directly without recombination. It is filed as cell-based, HIV. Particulars: AVE 6, pHXB2D control, no recombination. As to the method:
Recombinant virus was produced by co-transfection by electroporation of the SmaI-linearized IN-deletion construct and the integrase amplicon into MT4 cells or MT4 cells equipped with an LTR driven reporter gene construct. Production of recombinant virus was evaluated by scoring the cytopathogenic effect (CPE) that is induced by HIV-infection of MT4 cells or by the LTR-driven reporter signal induced by HIV infection in MT4 reporter cells. Green fluorescent protein was used as the reporter signal. Viruses are harvested and titrated at maximum CPE. For recombination the deletion construct pSV40HXB2D-ΔIN was used. Recombination experiments were performed with amplicon from wildtype HIV IIIB and NL4.3, and patient sample 146514 generated by both primer sets. For each recombination 2 µg amplicon was co-transfected with 10 µg SmaI-digested pSV40HXB2D-ΔIN by electroporation into MT4-LTR-EGFP cells. Virus stocks were titrated and tested in an antiviral experiment on a reference panel including nucleoside reverse transcriptase inhibitors (NRTI), non- nucleoside reverse transcriptase inhibitors (NNRTI), protein inhibitor (PR), entry and integrase (IN) inhibitors (Table 2). Recombination was checked by nucleic acid sequence analysis using protocols known to the person skilled in the art. Sequencing primers which can be used are In_seq1F (SEQ ID NO 17), In_seq2F (SEQ ID NO 18), In_seq3F (SEQ ID NO 19), IN_seq1R (SEQ ID NO 20), IN_seq2R (SEQ ID NO 21), and IN_seq3R (SEQ ID NO 22). The recombinant virus was evaluated in an anti-viral assay with a panel of reference compounds including nucleoside RT inhibitors (NRTI) Zidovudine (AZT) Lamivudine (3TC), Didanosine (DDI), non-nucleoside RT inhibitors (NNRTI) Nevirapine (NVP), 4-[[6-amino-5-bromo-2-[(4-cyanophenyl)amino]-4-pyrimidinyl]oxy]-3,5-dimethyl-benzonitrile also referred to as compound 1, 4-[[6-amino-5-bromo-2-[(4-cyanophenyl)amino]-4-pyrimidinyl]oxy]-3,5-dimethyl-Benzonitrile, also referred to as compound 2 protease inhibitors (PR) Saquinavir (SQV), Amprenavir (APV), Indinavir (IDV), [[…]-3-[[(4-aminophenyl)sulfonyl](2-methylpropyl)amino]-2-hydroxy-1-(phenylmethyl)-propyl]-, (3R,3aS,6aR)-hexahydrofuro[2,3-b]furan-3-yl ester carbamic acid also referred to as compound 3, entry-inhibitors (Entry)(AMD3100, DS5000, ATA), and integrase inhibitor (IN) 2-(1-methylethyloxy)-α,γ dioxo-5-(phenylmethyl)-benzenebutanoic acid also referred to as compound 4. […] AVE means antiviral experiment. Type means the type of inhibitor investigated. The fold change is the fold change in EC50. WT III B means that a portion of the wild type IIIB strain has been amplified and used in the antiviral experiment, including transfection and generation of recombinant virus. NL 4-3 means the integrase gene of this laboratory strain has been amplified and subsequently used for the antiviral experiment. […] No recombination has been effected using this HIV clone. pHXB2D has been used directly for transfection and antiviral experiment. Primer set 3 consist of outer primers 5'EGINT3 (SEQ ID NO 4) and 3'EGINT10 (SEQ ID NO 11), and inner primers 5'EGINT4 (SEQ ID NO 5) and 3'EGINT6 (SEQ ID NO 7). Primer set 4 consist of outer primers 5'EGINT3 (SEQ ID NO 4) and 3'EGINT10 (SEQ ID NO 11), and inner primers 5'EGINT5 […] and 3'EGINT6 (SEQ ID NO 7). Other suitable integrase inhibitors include L-731,988, diketo-acids and S-1360.

The structures appear in SMILES notation. Where two headings read alike, the source gives them in different places.

Regarding `CC(C)CN(C[C@@H](O)[C@H](Cc1ccccc1)NC(=O)O[C@H]1CO[C@H]2OCC[C@H]21)S(=O)(=O)c1ccc(N)cc1` [Compound 3, [(11S,2R)-3-[[(4-aminophenyl)sulfonyl](2-methylpropyl)amino]-2-hydroxy-1-(phenylmethyl)-propyl]-, (3R,3aS,6aR)-hexahydrofuro[2,3-b]furan-3-yl ester carbamic acid], the fold change was 2,2 in the assay on patient_146514 (fold change in EC50); 0,5 in the assay with NL 4-3 (AVE 1, NL 4-3, primer set 3); 1,5 in the assay with NL 4-3 (AVE 4, NL4-3, primer set 4); 0,9 with WT III B (fold change in EC50); 1,0 in the assay with pHXB2D control (fold change in EC50). For the same molecule, the EC50 in the assay on patient_146514 (read-out: EC 50) turned out to be 15.6 nM; in the assay with NL 4-3 (AVE 1, NL 4-3, primer set 3), 3.7 nM; in the assay with NL 4-3 (AVE 4, NL4-3, primer set 4), 10.9 nM; in the assay on WT III B (read-out: EC 50), 6.3 nM; in the assay with pHXB2D control, 7.1 nM.
